Assay [1] addresses T1, dopamine transporter (DAT) (Rattus norvegicus, UniProt P23977). Nature of the assay: [3H]GBR […] radioligand displacement, rat striatal membranes. It is filed as binding.
The target of assay [2] is T1, dopamine transporter (DAT). Nature of the assay: [3H]GBR […] radioligand displacement. It is filed as binding.

T1 sequence (P23977 whole entry): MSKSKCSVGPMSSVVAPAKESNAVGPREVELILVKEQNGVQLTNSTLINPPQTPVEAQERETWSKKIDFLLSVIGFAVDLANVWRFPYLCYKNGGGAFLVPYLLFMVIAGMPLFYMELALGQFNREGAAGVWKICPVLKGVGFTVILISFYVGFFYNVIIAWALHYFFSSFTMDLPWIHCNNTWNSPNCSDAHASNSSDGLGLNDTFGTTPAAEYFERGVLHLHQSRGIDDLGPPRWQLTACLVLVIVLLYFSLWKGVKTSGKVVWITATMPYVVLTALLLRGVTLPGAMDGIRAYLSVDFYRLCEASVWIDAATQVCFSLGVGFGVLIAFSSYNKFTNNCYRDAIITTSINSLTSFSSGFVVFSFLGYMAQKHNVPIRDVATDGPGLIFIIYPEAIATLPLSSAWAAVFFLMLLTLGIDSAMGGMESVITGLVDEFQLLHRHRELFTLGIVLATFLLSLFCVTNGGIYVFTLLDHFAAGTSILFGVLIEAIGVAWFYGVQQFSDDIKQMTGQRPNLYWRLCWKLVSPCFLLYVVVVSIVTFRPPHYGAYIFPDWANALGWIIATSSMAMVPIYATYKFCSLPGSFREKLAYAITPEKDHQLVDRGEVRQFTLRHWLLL

By Ki is commonly meant the dissociation constant of the complex between target and ligand, obtained from inhibition or displacement. In turn, `CN1CCCC2C(c3ccccc3)C(C3=NCCCC3)C(c3ccccc3)CC21` (centres unmarked) [lobinaline] had a Ki in assay [1] of 2.54 µM. As for lobinaline N-oxide, the Ki in assay [2] came to 132 µM.

These data come from paper PMC8657075 (Journal of biotechnology, 2021).
